Source: patent US20060069132A1, “Azolecarboxamide herbicides” (priority 2004, published 2006)

Experiments:
itchgrass = assay: Test E pre-/postemergence herbicide test; type: in vivo, Rottboellia cochinchinensis; conditions: Preemergence
Method in brief: (§1)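 Visual 0–100 rating vs untreated controls (0 = no effect, 100 = complete control), 12–14 d after treatment in greenhouse. Pre- and postemergence (2–18 cm, 1- to 4-leaf) applications; compounds in non-phytotoxic solvent with surfactant.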

common mallow = assay: Test E pre-/postemergence herbicide test; type: in vivo, Malva sylvestris; conditions: Preemergence
Method in brief: as §1

common sowthistle = assay: Test E pre-/postemergence herbicide test; type: in vivo, Sonchus oleraceous; conditions: Preemergence
Method in brief: as §1

Canada horseweed = assay: Test E pre-/postemergence herbicide test; type: in vivo, Erigeron Canadensis; conditions: Preemergence
Method in brief: as §1

wheat = assay: Test C postemergence herbicide test; type: in vivo, Triticum aestivum
Method in brief: (§2)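 Visual rating, 0 (no effect) to 100 (complete control), vs. controls at 12–14 d in greenhouse. Postemergence: 1–4-leaf plants, 2–18 cm. Paddy: flooded, barnyardgrass at 2-leaf stage.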

quackgrass = assay: Test E pre-/postemergence herbicide test; type: in vivo, Elytrigia repens; conditions: Preemergence
Method in brief: as §1

common chickweed = assay: Test E pre-/postemergence herbicide test; type: in vivo, Stellaria media; conditions: Preemergence
Method in brief: as §1

windgrass = assay: Test C postemergence herbicide test; type: in vivo, Apera spica-venti
Method in brief: as §2

guineagrass = assay: Test E pre-/postemergence herbicide test; type: in vivo, Panicum maximum; conditions: Preemergence
Method in brief: as §1

johnsongrass = assay: Test E pre-/postemergence herbicide test; type: in vivo, Sorghum halepense; conditions: Preemergence
Method in brief: as §1

goosegrass = assay: Test E pre-/postemergence herbicide test; type: in vivo, Eleusine indica; conditions: Preemergence
Method in brief: as §1

downy bromegrass = assay: Test C postemergence herbicide test; type: in vivo, Bromus tectorum
Method in brief: as §2

green foxtail [1] = assay: Test C postemergence herbicide test; type: in vivo, Setaria viridis
Method in brief: as §2

green foxtail [2] = assay: Test E pre-/postemergence herbicide test; type: in vivo, Setaria viridis; conditions: Preemergence
Method in brief: as §1

[3] = 125 g ai/ha, scale 0 (no effect) to 100 (complete control)
[4] = 250 g ai/ha, scale 0 (no effect) to 100 (complete control)
[5] = 500 g ai/ha, scale 0 (no effect) to 100 (complete control)
[6] = Postemergence, 500 g ai/ha, scale 0 to 100
[7] = Postemergence, 250 g ai/ha, scale 0 to 100, 0 no effect, 100 complete control
[8] = postemergence, 125 g ai/ha, scale 0 to 100
[9] = postemergence, 62 g ai/ha, scale 0 to 100

CCNC(=O)c1cccc(NC(=O)c2cc(C(C)(C)C)nn2CC)n1 [Compound 144]
Plant response rating, Itchgrass (itchgrass; 62 g ai/ha, scale 0 to 100): 20
Plant response rating, Itchgrass (itchgrass; [3]): 70
Plant response rating, Itchgrass (itchgrass; [4]): 70
Plant response rating, Itchgrass (itchgrass; [5]): 75
Plant response rating, Mallow (common mallow; 62 g ai/ha, scale 0 to 100): 60
Plant response rating, Mallow (common mallow; [3]): 60
Plant response rating, Mallow (common mallow; [4]): 70
Plant response rating, Mallow (common mallow; [5]): 95
Plant response rating, Sowthistle (common sowthistle; 62 g ai/ha, scale 0 to 100): 10
Plant response rating, Sowthistle (common sowthistle; [3]): 50
Plant response rating, Sowthistle (common sowthistle; [4]): 90
Plant response rating, Sowthistle (common sowthistle; [5]): 95
Plant response rating, Horseweed (Canada horseweed; 62 g ai/ha, scale 0 to 100): 70
Plant response rating, Horseweed (Canada horseweed; [3]): 100
Plant response rating, Horseweed (Canada horseweed; [4]): 100
Plant response rating, Horseweed (Canada horseweed; [5]): 100
Wheat plant response rating (wheat; [6]): 30
Plant response rating, Wheat (wheat; [7]): 30
Plant response rating, Wheat (wheat; [8]): 30
Plant response rating, Wheat (wheat; [9]): 20
Plant response rating, Quackgrass (quackgrass; 62 g ai/ha, scale 0 to 100): 10
Plant response rating, Quackgrass (quackgrass; [3]): 30
Plant response rating, Quackgrass (quackgrass; [4]): 70
Plant response rating, Quackgrass (quackgrass; [5]): 80
Plant response rating, Chickweed (common chickweed; 62 g ai/ha, scale 0 to 100): 50
Plant response rating, Chickweed (common chickweed; [3]): 90
Plant response rating, Chickweed (common chickweed; [4]): 95
Plant response rating, Chickweed (common chickweed; [5]): 95
Windgrass plant response rating (windgrass; [6]): 70
Plant response rating, Windgrass (windgrass; [7]): 60
Plant response rating, Windgrass (windgrass; [8]): 60
Plant response rating, Windgrass (windgrass; [9]): 50
Plant response rating, Guineagrass (guineagrass; 62 g ai/ha, scale 0 to 100): 10
Plant response rating, Guineagrass (guineagrass; [3]): 20
Plant response rating, Guineagrass (guineagrass; [4]): 60
Plant response rating, Guineagrass (guineagrass; [5]): 80
Plant response rating, Johnsongrass (johnsongrass; 62 g ai/ha, scale 0 to 100): 30
Plant response rating, Johnsongrass (johnsongrass; [3]): 50
Plant response rating, Johnsongrass (johnsongrass; [4]): 60
Plant response rating, Johnsongrass (johnsongrass; [5]): 60
Plant response rating, Goosegrass (goosegrass; 62 g ai/ha, scale 0 to 100): 20
Plant response rating, Goosegrass (goosegrass; [3]): 50
Plant response rating, Goosegrass (goosegrass; [4]): 80
Plant response rating, Goosegrass (goosegrass; [5]): 80
Bromegrass, Downy plant response rating (downy bromegrass; [6]): 40
Plant response rating, Bromegrass, Downy (downy bromegrass; [7]): 40
Plant response rating, Bromegrass, Downy (downy bromegrass; [8]): 40
Plant response rating, Bromegrass, Downy (downy bromegrass; [9]): 20
Foxtail, Green plant response rating (green foxtail [1]; [6]): 60
Plant response rating, Foxtail, Green (green foxtail [1]; [7]): 60
Plant response rating, Foxtail, Green (green foxtail [1]; [8]): 60
Plant response rating, Foxtail, Green (green foxtail [1]; [9]): 40
Plant response rating, Foxtail, Green (green foxtail [2]; 62 g ai/ha, scale 0 to 100): 10
Plant response rating, Foxtail, Green (green foxtail [2]; [3]): 50
Plant response rating, Foxtail, Green (green foxtail [2]; [4]): 80
Plant response rating, Foxtail, Green (green foxtail [2]; [5]): 90
